Measured values published in ChEMBL document CHEMBL5230113, “2-substituted benzothiazoles as antiproliferative agents: Novel insights on structure-activity relationships” (Eur J Med Chem, 2020).

What was measured:
SW-620 = experiment: Cytotoxicity against human SW620 cells assessed as inhibition of cell growth; assay type: functional, cell-based
[1] = Cytotoxicity against human SPCA1 cells assessed as inhibition of cell growth; assay type: functional, cell-based
HeLa = experiment: Antiproliferative activity against human HeLa cells assessed as cell growth inhibition; assay type: functional, cell-based
PC-3 = experiment: Cytotoxicity against human PC-3 cells assessed as inhibition of cell growth; assay type: functional, cell-based
[2] = molecular target: Tyrosine-protein kinase ABL1 (Mus musculus, UniProt P00520); experiment: Inhibition of wild type Abl in mouse BaF3 cells; assay type: cell-based
Tyrosine-protein kinase ABL1 (Mus musculus, UniProt P00520), sequence (P00520 whole entry): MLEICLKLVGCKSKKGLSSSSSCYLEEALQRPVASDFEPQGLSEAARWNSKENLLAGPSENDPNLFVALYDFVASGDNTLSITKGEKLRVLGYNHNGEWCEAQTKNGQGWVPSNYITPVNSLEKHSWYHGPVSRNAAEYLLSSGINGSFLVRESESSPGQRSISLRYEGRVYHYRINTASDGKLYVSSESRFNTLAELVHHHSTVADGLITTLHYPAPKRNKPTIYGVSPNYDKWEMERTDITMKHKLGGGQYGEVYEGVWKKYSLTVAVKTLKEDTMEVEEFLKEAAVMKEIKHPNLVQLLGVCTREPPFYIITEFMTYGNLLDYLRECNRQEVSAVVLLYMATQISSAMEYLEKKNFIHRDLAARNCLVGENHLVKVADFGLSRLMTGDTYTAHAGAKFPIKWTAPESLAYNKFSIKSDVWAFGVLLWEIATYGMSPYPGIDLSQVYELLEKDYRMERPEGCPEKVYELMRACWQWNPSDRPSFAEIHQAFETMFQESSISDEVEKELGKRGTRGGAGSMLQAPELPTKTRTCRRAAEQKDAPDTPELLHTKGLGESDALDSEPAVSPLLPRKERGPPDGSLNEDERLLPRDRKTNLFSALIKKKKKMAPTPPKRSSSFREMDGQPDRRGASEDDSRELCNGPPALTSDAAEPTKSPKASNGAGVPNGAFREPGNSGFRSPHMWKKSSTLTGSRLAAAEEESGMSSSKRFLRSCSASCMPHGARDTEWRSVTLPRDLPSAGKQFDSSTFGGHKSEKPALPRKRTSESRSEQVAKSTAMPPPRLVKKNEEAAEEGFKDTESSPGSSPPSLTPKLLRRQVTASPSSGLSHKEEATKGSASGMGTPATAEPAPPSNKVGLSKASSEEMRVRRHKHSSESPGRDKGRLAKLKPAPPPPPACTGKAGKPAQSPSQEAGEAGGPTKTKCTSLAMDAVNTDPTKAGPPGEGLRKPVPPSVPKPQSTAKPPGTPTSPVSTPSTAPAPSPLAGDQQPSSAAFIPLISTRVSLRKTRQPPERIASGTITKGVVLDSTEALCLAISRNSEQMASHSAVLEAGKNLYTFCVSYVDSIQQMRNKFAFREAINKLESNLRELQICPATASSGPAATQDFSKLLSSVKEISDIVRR

[3] = molecular target: Tyrosine-protein kinase ABL1 (Mus musculus, UniProt P00520, T315I); experiment: Inhibition of Abl T315I mutant in mouse BaF3 cells; assay type: cell-based
Tyrosine-protein kinase ABL1 (Mus musculus, UniProt P00520, T315I), sequence (P00520 whole entry T315I): as the sequence (P00520 whole entry) above, with T315I counted along it

[4] = molecular target: Tyrosine-protein kinase ABL1 (Homo sapiens, UniProt P00519); experiment: Inhibition of wild type Abl (unknown origin)
Tyrosine-protein kinase ABL1 (Homo sapiens, UniProt P00519), sequence (P00519 whole entry): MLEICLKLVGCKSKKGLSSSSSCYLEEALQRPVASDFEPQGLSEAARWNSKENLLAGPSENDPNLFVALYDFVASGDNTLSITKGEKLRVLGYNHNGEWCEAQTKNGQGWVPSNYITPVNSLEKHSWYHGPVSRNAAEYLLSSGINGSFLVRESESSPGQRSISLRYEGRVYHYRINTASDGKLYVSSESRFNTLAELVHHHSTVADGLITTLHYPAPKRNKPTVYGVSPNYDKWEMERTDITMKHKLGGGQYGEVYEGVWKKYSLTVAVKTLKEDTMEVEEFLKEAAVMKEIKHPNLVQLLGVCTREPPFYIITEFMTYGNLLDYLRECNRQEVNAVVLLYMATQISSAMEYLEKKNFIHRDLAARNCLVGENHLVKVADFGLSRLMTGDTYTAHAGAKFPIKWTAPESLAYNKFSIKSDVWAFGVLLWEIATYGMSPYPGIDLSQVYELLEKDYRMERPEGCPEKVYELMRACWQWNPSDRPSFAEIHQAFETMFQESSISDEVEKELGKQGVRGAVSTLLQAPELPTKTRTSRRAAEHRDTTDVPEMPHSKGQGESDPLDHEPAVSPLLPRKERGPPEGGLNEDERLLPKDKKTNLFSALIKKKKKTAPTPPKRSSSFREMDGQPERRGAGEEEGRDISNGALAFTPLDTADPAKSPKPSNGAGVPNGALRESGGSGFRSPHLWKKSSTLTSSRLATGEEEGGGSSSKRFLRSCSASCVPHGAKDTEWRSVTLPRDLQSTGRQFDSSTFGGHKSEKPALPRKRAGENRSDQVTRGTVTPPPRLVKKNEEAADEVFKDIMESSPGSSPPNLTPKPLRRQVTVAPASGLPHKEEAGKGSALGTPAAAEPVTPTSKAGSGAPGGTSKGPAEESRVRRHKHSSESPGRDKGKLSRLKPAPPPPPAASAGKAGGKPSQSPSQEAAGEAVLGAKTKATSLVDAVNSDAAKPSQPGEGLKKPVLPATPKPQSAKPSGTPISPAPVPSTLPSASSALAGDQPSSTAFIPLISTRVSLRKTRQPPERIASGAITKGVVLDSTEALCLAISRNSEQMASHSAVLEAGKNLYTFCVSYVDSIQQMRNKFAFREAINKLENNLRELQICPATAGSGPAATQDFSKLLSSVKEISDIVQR

[5] = molecular target: Aryl hydrocarbon receptor (Homo sapiens, UniProt P35869); experiment: Binding affinity to AhR (unknown origin)
Aryl hydrocarbon receptor, sequence (P35869 whole entry): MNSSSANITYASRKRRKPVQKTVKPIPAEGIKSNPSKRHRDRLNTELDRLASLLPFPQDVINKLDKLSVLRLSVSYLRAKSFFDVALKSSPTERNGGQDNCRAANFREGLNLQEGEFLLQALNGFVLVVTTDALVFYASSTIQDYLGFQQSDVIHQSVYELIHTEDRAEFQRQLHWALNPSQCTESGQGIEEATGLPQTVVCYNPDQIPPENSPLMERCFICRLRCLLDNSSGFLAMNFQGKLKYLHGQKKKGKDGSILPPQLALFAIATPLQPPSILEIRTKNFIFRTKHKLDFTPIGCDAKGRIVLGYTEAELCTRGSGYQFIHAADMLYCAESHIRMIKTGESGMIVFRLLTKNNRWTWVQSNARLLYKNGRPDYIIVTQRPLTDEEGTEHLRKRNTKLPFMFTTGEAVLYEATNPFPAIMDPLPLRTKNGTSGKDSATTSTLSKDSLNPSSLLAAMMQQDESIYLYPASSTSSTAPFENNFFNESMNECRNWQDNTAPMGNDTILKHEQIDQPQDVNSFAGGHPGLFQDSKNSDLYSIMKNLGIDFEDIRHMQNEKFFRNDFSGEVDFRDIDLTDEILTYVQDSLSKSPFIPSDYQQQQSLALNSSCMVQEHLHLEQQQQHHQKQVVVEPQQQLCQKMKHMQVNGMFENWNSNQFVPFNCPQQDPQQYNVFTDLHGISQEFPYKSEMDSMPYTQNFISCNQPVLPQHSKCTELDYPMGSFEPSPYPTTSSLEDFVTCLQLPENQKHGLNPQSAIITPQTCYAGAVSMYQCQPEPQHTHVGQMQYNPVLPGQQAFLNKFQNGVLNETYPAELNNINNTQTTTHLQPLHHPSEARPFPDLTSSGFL

Carbonic anhydrase 9 = Carbonic anhydrase 9 (Homo sapiens, UniProt Q16790); experiment: Inhibition of CA9 (unknown origin)
NUGC-3 = experiment: Cytotoxicity against human NUGC-3 cells assessed as cell growth inhibition; assay type: functional
SK-HEP1 = experiment: Cytotoxicity against human SK-HEP1 cells assessed as cell growth inhibition; assay type: functional
MDA-MB-231 = experiment: Cytotoxicity against human MDA-MB-231 cells assessed as cell growth inhibition; assay type: functional, cell-based
KM12 = experiment: Cytotoxicity against human KM12 cells assessed as cell growth inhibition; assay type: functional
Angiopoietin-1 receptor = Angiopoietin-1 receptor (Homo sapiens, UniProt Q02763); experiment: Inhibition of Tie2 (unknown origin)
Angiopoietin-1 receptor, sequence (Q02763 whole entry): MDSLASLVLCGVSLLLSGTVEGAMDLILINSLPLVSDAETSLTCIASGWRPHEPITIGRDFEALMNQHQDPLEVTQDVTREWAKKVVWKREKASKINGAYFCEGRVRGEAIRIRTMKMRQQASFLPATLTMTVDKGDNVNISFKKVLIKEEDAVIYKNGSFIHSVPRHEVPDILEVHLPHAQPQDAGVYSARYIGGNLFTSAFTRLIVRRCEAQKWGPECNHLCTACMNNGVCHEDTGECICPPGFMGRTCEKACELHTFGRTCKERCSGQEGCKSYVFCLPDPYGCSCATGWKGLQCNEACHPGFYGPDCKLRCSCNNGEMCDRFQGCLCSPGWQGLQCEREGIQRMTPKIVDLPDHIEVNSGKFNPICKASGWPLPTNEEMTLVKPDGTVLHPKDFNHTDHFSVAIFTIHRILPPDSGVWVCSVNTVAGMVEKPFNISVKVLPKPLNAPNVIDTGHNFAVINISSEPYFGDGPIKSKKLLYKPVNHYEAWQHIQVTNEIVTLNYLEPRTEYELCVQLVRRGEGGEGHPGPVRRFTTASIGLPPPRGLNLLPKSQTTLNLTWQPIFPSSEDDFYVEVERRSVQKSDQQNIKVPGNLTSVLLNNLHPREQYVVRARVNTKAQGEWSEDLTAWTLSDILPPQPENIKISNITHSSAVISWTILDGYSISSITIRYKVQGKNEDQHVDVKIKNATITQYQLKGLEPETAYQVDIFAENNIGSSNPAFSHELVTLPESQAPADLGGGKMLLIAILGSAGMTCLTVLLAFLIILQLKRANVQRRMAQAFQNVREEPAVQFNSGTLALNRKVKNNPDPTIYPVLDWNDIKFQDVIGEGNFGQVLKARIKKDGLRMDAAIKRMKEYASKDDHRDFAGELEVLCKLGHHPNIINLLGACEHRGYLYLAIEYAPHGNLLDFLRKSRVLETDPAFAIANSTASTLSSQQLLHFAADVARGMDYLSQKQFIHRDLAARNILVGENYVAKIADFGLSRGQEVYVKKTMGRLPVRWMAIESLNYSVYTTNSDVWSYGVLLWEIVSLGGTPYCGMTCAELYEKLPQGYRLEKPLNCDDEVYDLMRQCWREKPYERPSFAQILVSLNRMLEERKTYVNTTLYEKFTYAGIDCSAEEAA

K562 = experiment: Cytotoxicity against human K562 cells; assay type: functional
HCT-116 = experiment: Cytotoxicity against human HCT-116 cells assessed as inhibition of cell growth; assay type: functional, cell-based
MCF7 = experiment: Cytotoxicity against human MCF7 cells assessed as inhibition of cell growth; assay type: functional, cell-based
Tubulin = experiment: Inhibition of tubulin polymerization (unknown origin); assay type: protein-complex assay, Homo sapiens
SMMC-7721 = experiment: Cytotoxicity against human SMMC-7721 cells assessed as cell growth inhibition; assay type: functional, cell-based
HepG2 = experiment: Cytotoxicity against human HepG2 cells assessed as inhibition of cell growth; assay type: functional, cell-based
[6] = molecular target: Prostaglandin G/H synthase 1 (Homo sapiens, UniProt P23219); experiment: Inhibition of COX-1 (unknown origin)
Prostaglandin G/H synthase 1, sequence (P23219 whole entry): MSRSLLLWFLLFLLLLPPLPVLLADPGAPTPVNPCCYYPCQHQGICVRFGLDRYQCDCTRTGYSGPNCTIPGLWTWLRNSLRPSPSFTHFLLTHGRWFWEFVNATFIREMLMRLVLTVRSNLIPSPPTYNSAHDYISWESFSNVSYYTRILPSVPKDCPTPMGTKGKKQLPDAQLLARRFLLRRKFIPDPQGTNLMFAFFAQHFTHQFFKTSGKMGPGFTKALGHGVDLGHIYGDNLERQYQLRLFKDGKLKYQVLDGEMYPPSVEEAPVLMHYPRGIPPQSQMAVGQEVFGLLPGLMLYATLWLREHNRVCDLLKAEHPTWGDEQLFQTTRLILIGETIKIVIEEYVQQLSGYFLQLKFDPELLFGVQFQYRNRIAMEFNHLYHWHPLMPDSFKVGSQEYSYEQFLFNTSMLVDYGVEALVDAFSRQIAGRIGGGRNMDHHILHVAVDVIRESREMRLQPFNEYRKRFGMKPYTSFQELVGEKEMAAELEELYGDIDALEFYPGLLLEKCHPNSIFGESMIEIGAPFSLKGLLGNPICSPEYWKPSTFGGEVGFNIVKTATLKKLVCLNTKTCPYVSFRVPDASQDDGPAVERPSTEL

[7] = molecular target: T1, Prostaglandin G/H synthase 2 (Homo sapiens, UniProt P35354); experiment: Inhibition of COX-2 (unknown origin)
T1 sequence (P35354 whole entry): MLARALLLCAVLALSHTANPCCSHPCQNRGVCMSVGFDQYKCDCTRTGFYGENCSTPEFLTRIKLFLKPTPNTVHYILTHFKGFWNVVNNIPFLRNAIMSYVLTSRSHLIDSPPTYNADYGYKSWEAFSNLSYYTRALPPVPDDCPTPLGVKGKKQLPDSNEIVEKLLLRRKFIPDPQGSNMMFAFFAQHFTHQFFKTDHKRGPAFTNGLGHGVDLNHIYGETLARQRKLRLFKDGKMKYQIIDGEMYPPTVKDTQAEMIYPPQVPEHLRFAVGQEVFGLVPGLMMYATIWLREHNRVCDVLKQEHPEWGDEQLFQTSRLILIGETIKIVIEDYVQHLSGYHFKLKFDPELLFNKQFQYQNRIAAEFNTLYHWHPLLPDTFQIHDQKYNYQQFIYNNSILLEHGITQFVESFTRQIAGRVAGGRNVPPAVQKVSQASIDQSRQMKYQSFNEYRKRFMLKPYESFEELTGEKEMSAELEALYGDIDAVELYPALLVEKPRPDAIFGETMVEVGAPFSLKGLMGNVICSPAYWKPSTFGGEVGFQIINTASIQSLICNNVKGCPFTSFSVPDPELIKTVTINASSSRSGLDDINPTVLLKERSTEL

A549 = experiment: Antiproliferative activity against human A549 cells assessed as cell growth inhibition; assay type: functional, cell-based
C6 = experiment: Cytotoxicity against rat C6 cells assessed as inhibition of cell growth; assay type: functional, cell-based

`O=C(CSc1nc2ccc(NC(=O)CCl)cc2s1)NCc1ccccc1` gave an IC50 (SW-620) of 5120 nM, an IC50 [1] of 3890 nM and an IC50 (HeLa) of 5130 nM. It also gave an IC50 (PC-3) of 6580 nM.

For `CCNC(=O)Nc1nc2ccc(-c3ccccc3OC)cc2s1`, the IC50 [2] was 3570 nM, the IC50 [3] was 2140 nM and the IC50 [4] was 0.06 nM.

In the case of `COc1ccccc1-c1ccc2nc(NC(=O)NCCO)sc2c1`, the IC50 [2] is reported as 89 nM and the IC50 [3] is reported as 140 nM.

`COc1ccccc1-c1ccc2nc(NC(=O)NCCN3CCN(C)CC3)sc2c1` showed an IC50 [2] of 46 nM and an IC50 [3] of 78 nM.

`COc1ccc(-c2nc3cc(F)ccc3s2)cc1OC` gave an IC50 [5] of 25 nM.

For `CCCC(Sc1nc2cc(Cl)ccc2s1)C(=O)NS(=O)(=O)c1ccc(OC)cc1` (configuration not stated), the IC50 (Carbonic anhydrase 9) was 490 nM.

For `Cc1cc(C)c2sc(NC(=O)c3ccc(C(F)(F)F)cc3)nc2c1`, the GI50 (NUGC-3) was 290 nM, the GI50 (SK-HEP1) was 290 nM and the GI50 (MDA-MB-231) was 290 nM.

Work on `O=C(Nc1nc2ccc([N+](=O)[O-])cc2s1)c1ccc(C(F)(F)F)cc1` yielded a GI50 (NUGC-3) of 860 nM, a GI50 (SK-HEP1) of 860 nM and a GI50 (MDA-MB-231) of 860 nM.

Work on `Cc1cc(C)c2sc(NC(=O)c3ccc(C#N)cc3)nc2c1` yielded a GI50 (NUGC-3) of 290 nM, a GI50 (SK-HEP1) of 290 nM and a GI50 (MDA-MB-231) of 290 nM.

Compound `CCN1CCN(Cc2ccc(NC(=O)Nc3nc4ccc(Oc5ccnc(C(=O)NC)c5)cc4s3)cc2C(F)(F)F)CC1` has a GI50 (KM12) of 19 nM, an IC50 (Angiopoietin-1 receptor) of 0.82 nM and a GI50 (K562) of 51.4 nM.

For `Nc1ccc2sc(NC(=O)c3sc4ccccc4c3Cl)nc2c1`, the IC50 (HCT-116) was 4000 nM and the IC50 (MCF7) was 40 nM.

`O=C(CN1CCCCC1)Nc1ccc(-c2nc3ccccc3s2)cc1` gave an IC50 (MCF7) of 10 nM and an IC50 (MDA-MB-231) of 8 nM.

`COc1ccc(CN(C(=O)CSc2nc3ccccc3s2)c2cc(OC)c(OC)c(OC)c2)cc1O` showed an IC50 (Tubulin) of 1900 nM.

In the case of `O=C(CN1CCOCC1)Nc1ccc(-c2nc3ccccc3s2)cc1`, the IC50 (MCF7) is reported as 10 nM and the IC50 (MDA-MB-231) is reported as 8 nM.

Work on `CN1CCN(CC(=O)Nc2ccc(-c3nc4ccccc4s3)cc2)CC1` yielded an IC50 (MCF7) of 10 nM and an IC50 (MDA-MB-231) of 8 nM.

`COc1cccc2sc(NC(=O)c3ccc(C)cc3)nc12` showed a GI50 (NUGC-3) of 860 nM, a GI50 (SK-HEP1) of 860 nM and a GI50 (MDA-MB-231) of 860 nM.

`Cc1cc(C)c2sc(NC(=O)c3ccc([N+](=O)[O-])cc3)nc2c1` gave a GI50 (NUGC-3) of 290 nM, a GI50 (SK-HEP1) of 290 nM and a GI50 (MDA-MB-231) of 290 nM.

`Cc1ccc2nc(N/N=C/c3cccnc3Nc3ccc(Cl)cc3)sc2c1` gave an IC50 (MCF7) of 1030 nM.

`N=C(N)N/N=C/c1cn(-c2nc3ccc(Oc4ccc(F)cc4)cc3s2)nc1-c1ccccc1` gave an IC50 (SMMC-7721) of 2310 nM, an IC50 (MCF7) of 2230 nM and an IC50 (MDA-MB-231) of 2410 nM. The IC50 (HepG2; Homo sapiens, HepG2, read-out: IC50) was 3750 nM.

Work on `Cc1nc(SCC(=O)Nc2nc3ccc(Cl)cc3s2)n(Nc2ccc([N+](=O)[O-])cc2)c1C` yielded an IC50 (HepG2; hepg2) of over 500 µg/mL.

For `CC1=NNC(=O)/C1=N/Nc1cccc(-c2nc3ccccc3s2)c1`, the IC50 [6] was 9560 nM, the IC50 (MCF7) was over 25000 nM and the IC50 [7] was 100 nM. It also gave an IC50 (A549) of over 25000 nM.

In the case of `COc1ccc2nc(NC(=O)CSc3nc(C)c(C)n3Nc3ccc([N+](=O)[O-])cc3)sc2c1`, the IC50 (HepG2; hepg2) is reported as over 500 µg/mL and the IC50 (C6) is reported as over 500 µg/mL.
